From patent publication US11371077B2, “High throughput cell-based screening for aptamers” (MeiraGTx UK II Limited, priority 2016, dated 2022)

Experiments:
Assay type in all cases: cell-based
ydhl-A6 riboswitch = assay: Luciferase reporter assay, ydhl-A6 riboswitch, transfected HEK 293 cells; conditions: Homo sapiens, HEK293, read-out: Fold Induction of luciferase activity, ydhl-A6 riboswitch; Prestwick library compounds at 100 μM; HEK 293
Text: (§1) A truncated human beta-globin intron sequence was synthesized and inserted in the coding sequence of a firefly luciferase gene. A mutant human DHFR exon 2 was synthesized and inserted in the middle of this truncated beta-globin intron sequence using Golden gate cloning strategy. Aptamers including xpt-G/A^1, ydhl-G/A^2, yxj^3, add^4, gdg6-G/A^5 (citations for the aptamers are incorporated herein by reference) were synthesized as oligonucleotides (“oligos”) with 4 nucleotide overhang at the 5′ end that are complementary to two different BsaI sites individually (IDT), annealed and ligated to BsaI-digested mDHFR-Luci-acceptor vector.
(§2) 3.5×10^4 HEK 293 cells were plated in a 96-well flat bottom plate the day before transfection. Plasmid DNA (500 ng) was added to a tube or a 96-well U-bottom plate. […] Then, 50 μL of this diluted transfection reagent was added to the DNA, mixed, and incubated at RT for 20 min. Finally, 7 μL of this solution was added to a well of cells in the 96-well plate.
(§3) 24 hours after media change, plates were removed from the incubator, and equilibrated to RT for several minutes on a lab bench, then aspirated. Glo-lysis buffer (Promega, 100 μL, RT) was added, and the plates maintained at RT for at least 5 minutes. Then, the well contents were mixed by 50 μL trituration, and 20 μL of each sample was mixed with 20 μL of bright-glo reagent (Promega) that had been diluted to 10% in glo-lysis buffer. 96 wells were spaced on an opaque white 384-well plate. Following a 5 min incubation at RT, luminescence was measured using a Tecan machine with 500 mSec read time. The luciferase activity was expressed as mean relative light unit (RLU)±S.D., and fold induction was calculated as the luciferase activity obtained with guanine treatment divided by luciferase activity obtained without guanine treatment.

xpt-A8 riboswitch = assay: cells; conditions: Homo sapiens, HEK293, read-out: Fold Induction of luciferase activity
Text: (§4) Riboswitches were constructed as described in PCT/US2016/016234 (in particular Examples 3 to 6), incorporated herein by reference. A truncated human beta-globin intron sequence was synthesized and inserted in the coding sequence of a firefly luciferase gene. A mutant human DHFR exon 2 was synthesized and inserted in the middle of this truncated beta-globin intron sequence using Golden gate cloning strategy. Aptamers including xpt-G/A^1, ydhl-G/A^2, yxj^3, add^4, gdg6-G/A^5 (citations for the aptamers are incorporated herein by reference) were synthesized as oligonucleotides (“oligos”) with 4 nucleotide overhang at the 5′ end that are complementary to two different BsaI sites individually (IDT), annealed and ligated to BsaI-digested mDHFR-Luci-acceptor vector.
(§5) 3.5×10^4 HEK 293 cells were plated in a 96-well flat bottom plate the day before transfection. Plasmid DNA (500 ng) was added to a tube or a 96-well U-bottom plate. Separately, TransIT-293 reagent (Mirus; 1.4 μL) was added to 50 μL Opti-mem I media (Life Technologies), and allowed to sit for 5 minutes at room temperature (RT). Then, 50 μL of this diluted transfection reagent was added to the DNA, mixed, and incubated at RT for 20 min. Finally, 7 μL of this solution was added to a well of cells in the 96-well plate.
as §3

add-A6 riboswitch = assay: cells; conditions: Homo sapiens, HEK293, read-out: Fold Induction of luciferase activity
Text: as §4, §5, §3

xpt-G17 riboswitch = assay: Luciferase reporter assay, xpt-G17 riboswitch, transfected HEK 293 cells; conditions: for response of guanine riboswitch xpt-G17 to compound (FIG. 1e): Prestwick library at 100 μM
Text: as §1, §5, §3

gdg6-A8 riboswitch = assay: Luciferase reporter assay, gdg6-A8 riboswitch, transfected HEK 293 cells; conditions: Homo sapiens, HEK293; gdg6-A8 riboswitch; Prestwick library compounds at 100 μM; HEK 293
Text: as §4, §5, §3

ydhl-G8 riboswitch = assay: Luciferase reporter assay, ydhl-G8 riboswitch, transfected HEK 293 cells; conditions: Homo sapiens, HEK293, read-out: Fold Induction of luciferase activity
Text: as §1, §2, §3

add-G6 riboswitch = assay: cells; conditions: Homo sapiens, HEK293, read-out: Fold Induction of luciferase activity
Text: as §1, §2
as §3, with “The luciferase activity was expressed as mean relative light unit (RLU)±S.D., and fold induction was calculated as the luciferase activity obtained with guanine treatment divided by luciferase activity obtained without guanine treatment.” left out

gdg6-G8 riboswitch = assay: Luciferase reporter assay, gdg6-G8 riboswitch, transfected HEK 293 cells; conditions: Homo sapiens, HEK293; gdg6-G8 riboswitch; Prestwick library compounds at 100 μM; HEK 293
Text: as §4, §5, §3

yxj-A6 riboswitch = assay: cells; conditions: Homo sapiens, HEK293, read-out: Fold Induction of luciferase activity
Text: as §1, §5
as §3, with “The luciferase activity was expressed as mean relative light unit (RLU)±S.D., and fold induction was calculated as the luciferase activity obtained with guanine treatment divided by luciferase activity obtained without guanine treatment.” left out

[1] = system: riboswitches with guanine aptamers; assay: Dose responses of constructs with different aptamer based riboswitches (FIG. 1b); conditions: mammalian cells
Text: as §1
3.5×10^4 HEK 293 cells were plated in a 96-well flat bottom plate the day before transfection. Plasmid DNA (500 ng) was added to a tube or a 96-well U-bottom plate. […] Then, 50 μL of this diluted transfection reagent was added to the DNA, mixed, and incubated at RT for 20 min. […]
24 hours after media change, plates were removed from the incubator, and equilibrated to RT for several minutes on a lab bench, then aspirated. […] Following a 5 min incubation at RT, luminescence was measured using a Tecan machine with 500 mSec read time. The luciferase activity was expressed as mean relative light unit (RLU)±S.D., and fold induction was calculated as the luciferase activity obtained with guanine treatment divided by luciferase activity obtained without guanine treatment.

| Compound | fold induction at 100 µM (ydhl-A6 riboswitch) | fold induction at 100 µM (xpt-A8 riboswitch) | fold induction at 100 µM (add-A6 riboswitch) | fold induction at 100 µM (xpt-G17 riboswitch; Homo sapiens, HEK293, xpt-G17 riboswitch, Prestwick library compounds at 100 μM, HEK 293, preliminary screen) | response of guanine riboswitch xpt-G17 to compound (FIG. 1e) (xpt-G17 riboswitch; preliminary screen) | fold induction at 100 µM (gdg6-A8 riboswitch) | fold induction at 100 µM (ydhl-G8 riboswitch) | fold induction at 100 µM (add-G6 riboswitch) | fold induction at 100 µM (gdg6-G8 riboswitch) | fold induction at 100 µM (yxj-A6 riboswitch) | induction fold of luciferase reporter in response to guanine (xpt-G17 riboswitch; xpt-G17, high concentration of guanine) [fold] | response of riboswitches with guanine aptamers (reporter gene expression, FIG. 1b) [1] |
| --- | --- | --- | --- | --- | --- | --- | --- | --- | --- | --- | --- | --- |
| Nc1nc2nn[nH]c2c(=O)[nH]1 [8-Azaguanine] | 3.7 | 95.1 | 22.1 | 131 | responded | 306 | 35.6 | 47.9 | 42.3 | 55.6 |  |  |
| Nc1nc2nc[nH]c2c(=O)[nH]1 [guanine] |  |  |  |  | responded |  |  |  |  |  | 2000 | responds |
| Nc1nc2c(ncn2[C@@H]2O[C@H](CO)[C@@H](O)[C@H]2O)c(=O)[nH]1 [guanosine] |  |  |  |  |  |  |  |  |  |  |  | responds |
